In article PMC7465821, “Isolation of Three Lycorine Type Alkaloids from Rhodolirium speciosum (Herb.) Ravenna Using pH-Zone-Refinement Centrifugal Partition Chromatography and Their Acetylcholinesterase Inhibitory Activities” (Metabolites, 2020):

Target: acetylcholinesterase (AChE) (Electrophorus electricus, UniProt O42275)
Assay: Ellman spectrophotometric microplate assay, […] nm
Assay type: biochemical

Sequence of acetylcholinesterase (AChE) (O42275 24-633): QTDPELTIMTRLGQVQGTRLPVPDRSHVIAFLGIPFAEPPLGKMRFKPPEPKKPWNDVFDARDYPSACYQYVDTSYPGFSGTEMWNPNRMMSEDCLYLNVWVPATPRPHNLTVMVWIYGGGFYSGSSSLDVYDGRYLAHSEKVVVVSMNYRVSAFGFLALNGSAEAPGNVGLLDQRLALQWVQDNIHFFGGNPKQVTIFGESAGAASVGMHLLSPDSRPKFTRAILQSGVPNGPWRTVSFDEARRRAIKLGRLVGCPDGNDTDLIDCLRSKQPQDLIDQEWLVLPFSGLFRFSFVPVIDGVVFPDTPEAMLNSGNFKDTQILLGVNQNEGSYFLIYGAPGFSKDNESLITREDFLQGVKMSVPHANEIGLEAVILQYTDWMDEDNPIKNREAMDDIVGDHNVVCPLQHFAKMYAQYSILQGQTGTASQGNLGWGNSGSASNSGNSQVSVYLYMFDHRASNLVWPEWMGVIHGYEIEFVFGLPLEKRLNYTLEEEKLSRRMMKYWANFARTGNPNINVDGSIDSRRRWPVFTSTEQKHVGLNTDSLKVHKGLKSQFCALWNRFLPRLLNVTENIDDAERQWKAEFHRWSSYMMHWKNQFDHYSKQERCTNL

SMILES	IC50 [µM]
CC(=O)O[C@H]1[C@H]2c3cc4c(cc3CN3CCC(=C[C@@H]1O)[C@H]23)OCO4 [compound 2, 1-O-acetyl-lycorine]	1430
CC(=O)O[C@H]1[C@H]2c3cc4c(cc3C=[N+]3CCC(=C[C@@H]1O)[C@H]23)OCO4 [compound 1, 1-O-acetyl-5,6-dehydrolycorine]	620
CC(=O)OC1[C@@H](OC(C)=O)C=C2CC[N+]3=Cc4cc5c(cc4[C@H]1[C@@H]23)OCO5 (stereo partly drawn) [compound 3, 1,2-O-diacetyl-5,6-dehydrolycorine]	46.3
